Values of other authors as cited in article PMC8097335, “A High‐Affinity Calmodulin‐Binding Site in the CyaA Toxin Translocation Domain is Essential for Invasion of Eukaryotic Cells” (Advanced Science, 2021).
pKd: −log10 of the molar value.

Target: CaM
Conditions: quoted without reference; read-out: Kd of AC:CaM; cited from earlier work

## AC: N-terminal adenyl cyclase catalytic domain of CyaA, first 364 residues
  pKd: ~10.00
